Results as given in US20140135310A1, “SULPHONAMIDE DERIVATIVES OF ALICYCLIC AMINES FOR THE TREATMENT OF CENTRAL NERVOUS SYSTEM DISEASES” (Adamed Sp. z o.o., priority 2011, published 2014).

Columns and labels:
5-HT2A receptor = biological target: T1, 5-HT2A receptor (Homo sapiens, UniProt P28223); assay: Radioligand binding assay, serotoninergic 5-HT2A receptors; conditions: binding assay result in %, Table 5a
T1 construct: purchased PerkinElmer
Outline: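 Radioligand competition binding with scintillation counting; nonspecific binding defined by excess unlabelled ligand. Data as percent inhibition of control specific binding. IC50 by Hill-equation fit of competition curves; Ki by Cheng-Prusoff, with radioligand Kd from Scatchard plot.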

5-HT6 receptor = biological target: T2, 5-HT6 receptor (Homo sapiens, UniProt P50406); assay: Radioligand binding assay, serotoninergic 5-HT6 receptors; conditions: binding assay result in %, Table 5a;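 also: test compound at 1 µM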
T2 construct: purchased PerkinElmer
Outline: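 Values are Ki from Cheng–Prusoff, taking IC50 from Hill nonlinear regression of competition curves and KD from a Scatchard plot. Specific binding was total minus binding with excess unlabelled ligand. Radioligand displacement was detected by scintillation counting, and data were also reported as percent of control specific binding.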

[1] = biological target: dopaminergic receptors D2 (Homo sapiens, UniProt P14416); assay: Radioligand binding assay, dopaminergic D2 receptors; conditions: binding assay, test compound 1×10^−6 M
Outline: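 Competition binding with scintillation counting of bound radioligand; specific binding taken as total minus non-specific binding measured with excess unlabelled ligand. IC50 obtained by Hill-equation non-linear regression of replicate-mean curves, then converted to Ki via Cheng–Prusoff using radioligand concentration and Scatchard-derived KD.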

[2] = biological target: dopaminergic receptors D3 (Homo sapiens, UniProt P35462); assay: Radioligand binding assay, dopaminergic D3 receptors; conditions: test compound 1×10^−6 M
Outline: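 Competition radioligand binding at human D2, D3 and D4.4 receptors, detected by scintillation counting; nonspecific binding defined with excess unlabelled ligand. Results as percent inhibition of control specific binding; IC50 by Hill-equation nonlinear regression; Ki via Cheng-Prusoff, with radioligand KD from Scatchard plot.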

5-HT7 receptor = biological target: T3, 5-HT7 receptor (Homo sapiens, UniProt P34969); assay: Radioligand binding assay, serotoninergic 5-HT7 receptors; conditions: binding assay result in %, Table 5a;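 also: test compound at 1 µM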
T3 construct: purchased PerkinElmer
Outline: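 Competition binding at human 5-HT7 receptors with a radioligand, detected by scintillation counting; non-specific binding was defined with excess unlabelled ligand. IC50 came from Hill-equation fits of competition curves, and Ki from Cheng–Prusoff using radioligand concentration and Scatchard-derived KD.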

[3] = biological target: T4, 5-HT1A receptor (rat hippocampus) (Rattus norvegicus, UniProt P19327); assay: Radioligand binding assay, serotoninergic 5-HT1A receptors; conditions: binding assay result in %, Table 5a;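 also: test compound at 1 µM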
T4 construct: hippocampus; from tissue; host or cells: rat hippocampus
T4 sequence (P19327 1-422): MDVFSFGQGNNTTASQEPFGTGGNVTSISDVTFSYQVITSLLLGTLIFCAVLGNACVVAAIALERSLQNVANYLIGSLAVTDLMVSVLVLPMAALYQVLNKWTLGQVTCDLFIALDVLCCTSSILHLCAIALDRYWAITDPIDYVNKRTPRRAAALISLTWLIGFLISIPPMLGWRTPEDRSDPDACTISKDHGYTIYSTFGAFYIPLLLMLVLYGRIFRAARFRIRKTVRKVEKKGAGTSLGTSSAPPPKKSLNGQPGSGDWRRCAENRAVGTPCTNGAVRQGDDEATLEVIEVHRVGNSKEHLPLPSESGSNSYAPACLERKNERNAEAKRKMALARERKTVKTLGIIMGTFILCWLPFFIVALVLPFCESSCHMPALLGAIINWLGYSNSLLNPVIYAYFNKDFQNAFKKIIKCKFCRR

[4] = tested on: α1 adrenergic receptors (rat cerebral cortex); assay: Radioligand binding assay, adrenergic α1 receptors; conditions: test compound 1×10^−6 M
Excerpt: The specific ligand binding to the receptors is defined as the difference between the total binding and the non-specific binding determined in the presence of the excess of unlabelled ligand.
The results are expressed as a percent of control specific binding ((measured specific binding/control specific binding)×100) and as a percent inhibition of control specific binding (100−((measured specific binding/control specific binding)×100)) obtained in the presence of the test compounds. The specific ligand binding to the receptors is defined as the difference between the total binding and the nonspecific binding determined in the presence of an excess of unlabelled ligand. Scintillation counting was the method of detection of ligand binding. The IC50 values (concentration causing a half-maximal inhibition of control specific binding) were determined by non-linear regression analysis of the competition curves generated with mean replicate values using Hill equation curve fitting (Y=D+[(A−D)/(1+(C/C50)nH)], where Y=specific binding, D=minimum specific binding, A=maximum specific binding, C=compound concentration, C50=IC50, and nH=slope factor). […] The inhibition constants (Ki) were calculated using the Cheng Prusoff equation (Ki=IC50/(1+(L/KD)), where L=concentration of radioligand in the assay, and KD=affinity of the radioligand for the receptor). A scatchard plot was used to determine the Kd.

[5] = biological target: T5, serotonin transporter (SERT) (Homo sapiens, UniProt P31645); assay: Radioligand binding assay, serotonin transporter (SERT); conditions: binding assay, test compound 1×10^−6 M
T5 construct: expressed in transfected cells; host or cells: CHO cells
Outline: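 Radioligand competition binding with scintillation detection; specific binding is total minus binding under excess unlabelled ligand. Reported as % of control specific binding or % inhibition; IC50 from Hill-equation non-linear regression of competition curves, and Ki via Cheng-Prusoff using radioligand concentration and Scatchard-derived KD.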

T1 sequence (P28223 whole entry): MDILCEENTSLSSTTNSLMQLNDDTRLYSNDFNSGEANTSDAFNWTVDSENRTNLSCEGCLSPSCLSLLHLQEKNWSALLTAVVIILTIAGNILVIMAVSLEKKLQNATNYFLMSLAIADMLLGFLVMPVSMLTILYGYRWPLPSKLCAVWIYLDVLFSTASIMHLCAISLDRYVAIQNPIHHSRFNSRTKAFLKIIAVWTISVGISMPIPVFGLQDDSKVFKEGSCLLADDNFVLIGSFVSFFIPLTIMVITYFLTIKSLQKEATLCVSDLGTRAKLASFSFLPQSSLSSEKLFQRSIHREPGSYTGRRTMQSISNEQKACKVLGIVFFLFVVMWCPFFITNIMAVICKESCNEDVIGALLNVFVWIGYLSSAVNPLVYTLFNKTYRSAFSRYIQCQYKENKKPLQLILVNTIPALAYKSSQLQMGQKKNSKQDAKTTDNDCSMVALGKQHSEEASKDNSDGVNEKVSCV
T5 sequence (P31645 whole entry): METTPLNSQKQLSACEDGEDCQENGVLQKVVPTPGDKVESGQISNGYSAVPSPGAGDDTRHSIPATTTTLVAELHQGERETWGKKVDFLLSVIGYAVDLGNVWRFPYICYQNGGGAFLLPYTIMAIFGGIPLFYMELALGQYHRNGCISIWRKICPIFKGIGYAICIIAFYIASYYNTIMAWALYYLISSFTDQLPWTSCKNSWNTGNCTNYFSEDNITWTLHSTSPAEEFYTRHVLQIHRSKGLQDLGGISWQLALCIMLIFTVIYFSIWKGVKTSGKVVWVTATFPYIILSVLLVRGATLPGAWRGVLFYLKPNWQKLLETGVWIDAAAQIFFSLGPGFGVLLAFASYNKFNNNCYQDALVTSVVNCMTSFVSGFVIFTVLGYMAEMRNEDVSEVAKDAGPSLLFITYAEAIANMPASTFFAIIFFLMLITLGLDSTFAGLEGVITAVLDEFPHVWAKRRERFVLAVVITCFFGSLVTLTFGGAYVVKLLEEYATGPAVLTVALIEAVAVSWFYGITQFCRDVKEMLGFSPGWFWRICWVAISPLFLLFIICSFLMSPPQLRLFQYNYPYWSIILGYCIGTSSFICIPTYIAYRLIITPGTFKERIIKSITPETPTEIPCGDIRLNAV
T3 sequence (P34969 whole entry): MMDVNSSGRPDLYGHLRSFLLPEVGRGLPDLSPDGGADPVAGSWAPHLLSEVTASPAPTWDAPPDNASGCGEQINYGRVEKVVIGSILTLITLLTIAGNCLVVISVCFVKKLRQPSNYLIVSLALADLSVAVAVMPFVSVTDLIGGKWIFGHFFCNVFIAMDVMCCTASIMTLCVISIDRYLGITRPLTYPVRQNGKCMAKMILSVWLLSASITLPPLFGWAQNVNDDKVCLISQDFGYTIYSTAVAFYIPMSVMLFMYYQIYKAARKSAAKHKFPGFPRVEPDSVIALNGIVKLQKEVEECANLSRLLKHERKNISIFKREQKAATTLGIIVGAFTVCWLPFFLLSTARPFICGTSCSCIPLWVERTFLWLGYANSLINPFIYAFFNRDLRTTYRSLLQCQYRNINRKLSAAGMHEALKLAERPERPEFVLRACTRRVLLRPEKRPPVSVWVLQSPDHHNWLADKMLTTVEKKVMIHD
dopaminergic receptors D2, sequence (P14416 whole entry): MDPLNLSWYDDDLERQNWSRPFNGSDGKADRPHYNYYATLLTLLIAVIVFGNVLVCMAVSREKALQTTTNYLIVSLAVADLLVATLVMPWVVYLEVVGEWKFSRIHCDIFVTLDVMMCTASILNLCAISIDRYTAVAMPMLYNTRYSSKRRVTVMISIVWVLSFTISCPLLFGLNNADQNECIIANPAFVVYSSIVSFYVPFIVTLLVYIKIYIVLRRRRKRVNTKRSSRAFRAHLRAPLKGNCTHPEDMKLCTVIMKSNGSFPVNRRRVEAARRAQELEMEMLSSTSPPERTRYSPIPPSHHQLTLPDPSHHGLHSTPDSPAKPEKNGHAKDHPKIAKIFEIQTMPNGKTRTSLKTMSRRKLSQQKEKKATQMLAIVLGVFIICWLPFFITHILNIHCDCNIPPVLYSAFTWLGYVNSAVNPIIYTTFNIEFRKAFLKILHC
T2 sequence (P50406 whole entry): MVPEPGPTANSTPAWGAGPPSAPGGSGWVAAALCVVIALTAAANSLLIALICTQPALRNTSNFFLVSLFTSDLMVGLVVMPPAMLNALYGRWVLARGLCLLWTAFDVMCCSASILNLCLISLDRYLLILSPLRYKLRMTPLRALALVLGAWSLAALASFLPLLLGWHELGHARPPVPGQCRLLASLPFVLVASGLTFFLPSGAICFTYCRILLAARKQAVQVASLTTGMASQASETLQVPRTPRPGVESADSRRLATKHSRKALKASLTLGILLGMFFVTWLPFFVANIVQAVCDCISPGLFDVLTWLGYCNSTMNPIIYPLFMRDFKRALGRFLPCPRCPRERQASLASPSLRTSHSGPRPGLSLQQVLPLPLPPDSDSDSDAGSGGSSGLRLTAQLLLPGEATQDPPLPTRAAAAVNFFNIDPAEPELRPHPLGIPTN
dopaminergic receptors D3, sequence (P35462 whole entry): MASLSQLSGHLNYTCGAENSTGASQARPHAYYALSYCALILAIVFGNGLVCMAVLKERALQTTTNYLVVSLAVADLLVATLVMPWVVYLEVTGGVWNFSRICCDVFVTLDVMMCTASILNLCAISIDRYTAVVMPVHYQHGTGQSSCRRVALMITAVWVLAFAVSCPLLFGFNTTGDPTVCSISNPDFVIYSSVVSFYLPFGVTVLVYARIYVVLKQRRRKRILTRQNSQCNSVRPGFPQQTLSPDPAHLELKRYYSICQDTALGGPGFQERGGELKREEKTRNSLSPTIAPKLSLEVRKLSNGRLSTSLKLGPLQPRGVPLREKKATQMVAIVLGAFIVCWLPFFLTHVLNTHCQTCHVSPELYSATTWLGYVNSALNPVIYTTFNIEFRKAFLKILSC

O=S(=O)(NC1CN(CCOc2cccc3c2OCCO3)C1)c1ccc(F)cc1 [Compound 90, N-[1-[2-(2,3-Dihydro-1,4-benzodioxan-8-yloxy)ethyl]azetidin-3-yl]-4-fluoro-benzenesulphonamide]
5-HT2A [%] (5-HT2A receptor): 49%
5-HT6 [%] (5-HT6 receptor): −16%
D2 [%] [1]: 5%
D3 [%] [2]: −7%
5-HT7 [%] (5-HT7 receptor): 92%
5-HT1A [%] [3]: 82%
α1 [%] [4]: −25%
SERT [%] [5]: 18%

O=S(=O)(NC1CCN(CCCc2noc3cc(F)ccc23)CC1)c1ccc2ccccc2c1 [Compound 35, N-[1-[3-(6-Fluoro-1,2-benzoxazol-3-yl)propyl]-4-piperidine]-naphthalene-2-sulphonamide]
5-HT2A [%] (5-HT2A receptor): 91%
5-HT6 [%] (5-HT6 receptor): 97%
D2 [%] [1]: 77%
D3 [%] [2]: 56%
5-HT7 [%] (5-HT7 receptor): 98%
5-HT1A [%] [3]: 28%
α1 [%] [4]: 99%
SERT [%] [5]: 29%

Cc1c(S(=O)(=O)NCC2CN(CCOc3cccc4ccccc34)C2)sc2ccc(Cl)cc12 [Compound 167, 5-Chloro-3-methyl-N-[[1-[2-(1-naphthyloxy)ethyl]azetidin-3-yl]methyl]benzothiophene-2-sulphonamide]
inhibition at 1 µM (5-HT2A receptor): 95%
inhibition at 1 µM (5-HT6 receptor): 94%
inhibition at 1 µM [1]: 60%
inhibition at 1 µM [2]: 97%
inhibition at 1 µM (5-HT7 receptor): 90%
inhibition at 1 µM [3]: 75%
α1 [%] [4]: 3%
inhibition at 1 µM [5]: 31%

O=S(=O)(NCC1CN(CCOc2cccc3c2OCCO3)C1)c1ccc(C(F)(F)F)cc1 [Compound 180, N-[[1-[2-(2,3-Dihydro-1,4-benzodioxin-5-yloxy)ethyl]azetidin-3-yl]methyl]-4-(trifluoromethyl)benzenesulphonamide]
inhibition at 1 µM (5-HT2A receptor): 68%
inhibition at 1 µM (5-HT6 receptor): 31%
inhibition at 1 µM [1]: 23%
inhibition at 1 µM [2]: 46%
inhibition at 1 µM (5-HT7 receptor): 94%
inhibition at 1 µM [3]: 93%
α1 [%] [4]: 39%
inhibition at 1 µM [5]: 14%

O=S(=O)(NC1CCN(CCOc2cccc3c2OCCO3)C1)c1ccc2ccccc2c1 (stereo not shown) [Compound 99, N-[1-[2-(2,3-Dihydro-1,4-benzodioxan-8-yloxy)ethyl]pyrrolidin-3-yl]-naphthalene-2-sulphonamide]
5-HT2A [%] (5-HT2A receptor): 97%
5-HT6 [%] (5-HT6 receptor): 64%
D2 [%] [1]: 38%
D3 [%] [2]: 78%
5-HT7 [%] (5-HT7 receptor): 90%
5-HT1A [%] [3]: 96%
α1 [%] [4]: 70%
SERT [%] [5]: 36%

O=S(=O)(NCC1CN(CCOc2cccc3c2OCCO3)C1)c1ccc2cc(Cl)ccc2c1 [Compound 174, 6-Chloro-N-[[1-[2-(2,3-dihydro-1,4-benzodioxin-5-yloxy)ethyl]azetidin-3-yl]methyl]naphthalene-2-sulphonamide]
inhibition at 1 µM (5-HT2A receptor): 44%
inhibition at 1 µM (5-HT6 receptor): 64%
inhibition at 1 µM [1]: 25%
inhibition at 1 µM [2]: 22%
inhibition at 1 µM (5-HT7 receptor): 90%
inhibition at 1 µM [3]: 91%
α1 [%] [4]: 15%
inhibition at 1 µM [5]: 20%

O=S(=O)(NC1CCN(CCCc2noc3cc(F)ccc23)CC1)c1ccc(-c2ccccc2)cc1 [Compound 327, N-[1-[3-(6-Fluoro-1,2-benzoxazol-3-yl)propyl]-4-piperidyl]-4-phenylbenzenesulphonamide]
inhibition at 1 µM (5-HT2A receptor): 94%
inhibition at 1 µM (5-HT6 receptor): 68%
inhibition at 1 µM [1]: 79%
inhibition at 1 µM [2]: 56%
inhibition at 1 µM (5-HT7 receptor): 86%
inhibition at 1 µM [3]: 20%
α1 [%] [4]: 81%
inhibition at 1 µM [5]: 33%

O=S(=O)(NC1CCN(CCOc2cccc3c2OCCO3)CC1)c1cccc2ccccc12 [Compound 100, N-[1-[2-(2,3-dihydro-1,4-benzodioxan-8-yloxy)ethyl]-4-piperidine]-naphthalene-1-sulphonamide]
5-HT2A [%] (5-HT2A receptor): 97%
5-HT6 [%] (5-HT6 receptor): 28%
D2 [%] [1]: 41%
D3 [%] [2]: 74%
5-HT7 [%] (5-HT7 receptor): 103%
5-HT1A [%] [3]: 94%
α1 [%] [4]: 87%
SERT [%] [5]: 57%
